Assay results published in ChEMBL document CHEMBL3044730, “Synthesis, antimycobacterial, antiviral, antimicrobial activities, and QSAR studies of nicotinic acid benzylidene hydrazide derivatives” (Med Chem Res, 2012).
Converted amounts (≈) assume the structure as drawn.

Columns and labels:
[1] = system: Human herpesvirus 5 strain AD169; experiment: Antiviral activity against Human herpesvirus 5 strain AD169 Davis infected human HEL cells assessed as inhibition of virus-induced cytopathicity by microscopy; type: functional, organism-based; details: Human betaherpesvirus 5, Davis
[2] = system: Staphylococcus aureus; experiment: Antimicrobial activity against Staphylococcus aureus after 24 hr by serial dilution method; type: functional; set-up: unit not given here
[3] = system: Sindbis virus; experiment: Antiviral activity against Sindbis virus infected Vero cells assessed as inhibition of virus-induced cytopathicity; type: functional, organism-based
[4] = system: Respiratory syncytial virus; experiment: Antiviral activity against Respiratory syncytial virus infected human HeLa cells assessed as inhibition of virus-induced cytopathicity by microscopy; type: functional, organism-based
[5] = system: Candida albicans; experiment: Antimicrobial activity against Candida albicans after 7 days by serial dilution method; type: functional; set-up: unit not given here
[6] = system: Punta Toro virus; experiment: Antiviral activity against Punta Toro virus infected Vero cells assessed as inhibition of virus-induced cytopathicity; type: functional, organism-based
[7] = system: Human immunodeficiency virus 1; experiment: Antiviral activity against Human immunodeficiency virus 1 IIIB infected MT4 cells assessed as inhibition of virus-induced cytopathic effect after 4 days by MTT assay; type: functional, organism-based; details: MT4, 96 h
[8] = system: Vaccinia virus; experiment: Antiviral activity against Vaccinia virus infected human HEL cells assessed as inhibition of virus-induced cytopathicity by microscopy; type: functional, organism-based; details: Orthopoxvirus vaccinia
[9] = Cytotoxicity against Homo sapiens (human) HEL cells assessed as alteration in cell morphology by microscopy; type: cell-based
[10] = system: Human alphaherpesvirus 1; experiment: Antiviral activity against TK(-) aciclovir-resistant Human herpesvirus 1 strain KOS infected in human HEL cells assessed as inhibition of virus-induced cytopathicity; type: functional, organism-based; details: Human alphaherpesvirus 1, KOS
[11] = Cytotoxicity against Chlorocebus aethiops (African green monkey) Vero cells assessed as alteration in cell morphology by microscopy; type: cell-based; details: chlorocebus sabaeus
[12] = system: Coxsackievirus B4; experiment: Antiviral activity against Human coxsackievirus B4 infected Vero cells assessed as inhibition of virus-induced cytopathicity; type: functional, organism-based; details: Enterovirus B
[13] = system: Vesicular stomatitis virus; experiment: Antiviral activity against Vesicular stomatitis virus infected human HeLa cells assessed as inhibition of virus-induced cytopathicity by microscopy; type: functional, organism-based
[14] = system: Candida albicans; experiment: Antimicrobial activity against Candida albicans after 2 days by serial dilution method; type: functional; set-up: unit not given here
[15] = system: Coxsackievirus B4; experiment: Antiviral activity against Human coxsackievirus B4 infected human HeLa cells assessed as inhibition of virus-induced cytopathicity by microscopy; type: functional, organism-based; details: Enterovirus B
[16] = system: Mammalian orthoreovirus 1; experiment: Antiviral activity against Mammalian orthoreovirus 1 infected Vero cells assessed as inhibition of virus-induced cytopathicity by microscopy; type: functional, organism-based; details: Mammalian orthoreovirus 1, Vero
[17] = system: Human immunodeficiency virus 2; experiment: Antiviral activity against Human immunodeficiency virus type 2 (ISOLATE ROD) infected MT4 cells assessed as inhibition of virus-induced cytopathic effect after 4 days by MTT assay; type: functional, organism-based; details: Human immunodeficiency virus 2, ISOLATE ROD, MT4, 96 h
[18] = system: Human alphaherpesvirus 1; experiment: Antiviral activity against Human herpesvirus 1 strain KOS infected in human HEL cells assessed as inhibition of virus-induced cytopathicity by microscopy by microscopy; type: functional, organism-based; details: Human alphaherpesvirus 1, KOS
[19] = system: Human herpesvirus 3 strain Oka vaccine; experiment: Antiviral activity against Human herpesvirus 3 strain Oka vaccine OKA 07-1 (Varicella zoster virus) infected in human HEL cells assessed as inhibition of virus-induced cytopathicity; type: functional, organism-based; details: Human alphaherpesvirus 3, OKA 07-1, HEL
[20] = system: Escherichia coli; experiment: Antimicrobial activity against Escherichia coli after 24 hr by serial dilution method; type: functional; set-up: unit not given here
[21] = system: Human alphaherpesvirus 2; experiment: Antiviral activity against Human herpesvirus 2 strain G infected human HEL cells assessed as inhibition of virus-induced cytopathicity by microscopy; type: functional, organism-based; details: Human alphaherpesvirus 2, strain G
[22] = system: Bacillus subtilis; experiment: Antimicrobial activity against Bacillus subtilis after 24 hr by serial dilution method; type: functional; set-up: unit not given here
[23] = Cytotoxicity against Homo sapiens (human) MT4 cells after 4 days by MTT assay; type: cell-based
[24] = system: Human respirovirus 3; experiment: Antiviral activity against Human parainfluenza virus 3 infected Vero cells assessed as inhibition of virus-induced cytopathicity by microscopy; type: functional, organism-based; details: Human respirovirus 3, Vero
[25] = Cytotoxicity against Homo sapiens (human) HeLa cells assessed as alteration in cell morphology by microscopy; type: cell-based
[26] = system: Mycobacterium tuberculosis; experiment: Antimicrobial activity against Mycobacterium tuberculosis by agar dilution method; type: functional

| Compound | EC50 [1] [µg/mL] | -logMIC [2] | EC50 [3] [µg/mL] | EC50 [4] [µg/mL] | -logMIC [5] | EC50 [6] [µg/mL] | EC50 [7] [µg/mL] | EC50 [8] [µg/mL] | CC50 [9] [µg/mL] | MCC [9] [µg/mL] | EC50 [10] [µg/mL] | MCC [11] [µg/mL] | EC50 [12] [µg/mL] | EC50 [13] [µg/mL] | -logMIC [14] | EC50 [15] [µg/mL] | EC50 [16] [µg/mL] | EC50 [17] [µg/mL] | EC50 [18] [µg/mL] | EC50 [19] [µg/mL] | also measured |
| --- | --- | --- | --- | --- | --- | --- | --- | --- | --- | --- | --- | --- | --- | --- | --- | --- | --- | --- | --- | --- | --- |
| O=C(N/N=C/c1ccc(Cl)cc1)c1cccnc1 | > 100 | 1.32 | > 100 | > 100 | 1.92 | > 100 | > 76 | > 100 | 29 (≈ 112 µM) | > 100 | > 100 | > 100 | > 100 | > 100 | 1.32 | > 100 | > 100 | > 76 | > 100 | > 100 | -logMIC [20]: 1.32; EC50 [21]: > 100 µg/mL; -logMIC [22]: 1.02; CC50 at 96 h [23]: 76 µg/mL (≈ 293 µM); EC50 [24]: > 100 µg/mL; MCC [25]: > 100 µg/mL; MIC [26]: 25 µg/mL (≈ 96.3 µM) |
| O=C(N/N=C/c1cccc(Br)c1)c1cccnc1 | > 100 | 1.09 | > 100 | > 100 | 1.99 | > 100 | > 66 | > 100 | 55 (≈ 181 µM) | > 100 | > 100 | ≥ 100 | > 100 | > 100 | 1.38 | > 100 | > 100 | > 66 | > 100 | > 100 | -logMIC [20]: 1.39; EC50 [21]: > 100 µg/mL; -logMIC [22]: 1.39; CC50 at 96 h [23]: 66 µg/mL (≈ 217 µM); EC50 [24]: > 100 µg/mL; MCC [25]: ≥ 100 µg/mL; MIC [26]: > 25 µg/mL |
| O=C(N/N=C/c1cccc(Cl)c1)c1cccnc1 | > 100 | 1.32 | > 100 | > 100 | 1.92 | > 100 | > 62 | > 100 | 53 (≈ 204 µM) | > 100 | > 100 | > 100 | > 100 | > 100 | 1.32 | > 100 | 34 (≈ 131 µM) | > 62 | > 100 | > 100 | -logMIC [20]: 1.02; EC50 [21]: > 100 µg/mL; -logMIC [22]: 1.02; CC50 at 96 h [23]: 62 µg/mL (≈ 239 µM); EC50 [24]: > 100 µg/mL; MCC [25]: > 100 µg/mL; MIC [26]: > 25 µg/mL |
| O=C(N/N=C/c1ccccc1Cl)c1cccnc1 | > 100 | 1.32 | > 100 | > 20 | 1.32 | > 100 | > 0.57 | > 100 | 12 (≈ 46.2 µM) | > 100 | > 100 | > 100 | > 100 | > 20 | 1.32 | > 20 | > 100 | > 0.57 | > 100 | > 100 | -logMIC [20]: 1.02; EC50 [21]: > 100 µg/mL; -logMIC [22]: 1.02; CC50 at 96 h [23]: ≥ 0.57 µg/mL; EC50 [24]: > 100 µg/mL; MCC [25]: 100 µg/mL; MIC [26]: > 25 µg/mL |
| O=C(N/N=C/c1ccccc1Br)c1cccnc1 | > 100 | 1.09 | > 100 | > 100 | 1.69 | > 100 | > 0.22 | > 20 | 2.6 (≈ 8.55 µM) | 100 | > 20 | > 100 | > 100 | > 100 | 1.39 | > 100 | > 100 | > 0.22 | > 20 | > 51 | -logMIC [20]: 1.39; EC50 [21]: > 20 µg/mL; -logMIC [22]: 1.39; CC50 at 96 h [23]: ≥ 0.22 µg/mL; EC50 [24]: > 100 µg/mL; MCC [25]: > 100 µg/mL; MIC [26]: > 25 µg/mL |
| O=C(N/N=C/c1ccc(Br)cc1)c1cccnc1 | > 100 | 1.09 | > 100 | > 100 | 1.39 | > 100 | > 61 | > 100 | 48 (≈ 158 µM) | > 100 | > 100 | > 100 | > 100 | > 100 | 1.39 | > 100 | > 100 | > 61 | > 100 | > 100 | -logMIC [20]: 1.39; EC50 [21]: > 100 µg/mL; -logMIC [22]: 1.39; CC50 at 96 h [23]: 61 µg/mL (≈ 201 µM); EC50 [24]: > 100 µg/mL; MCC [25]: > 100 µg/mL; MIC [26]: 25 µg/mL (≈ 82.2 µM) |
| O=C(N/N=C/c1ccc(F)cc1)c1cccnc1 | > 100 | 1.29 | > 100 | > 100 | 1.59 | > 100 | > 125 | > 100 | > 100 | > 100 | > 100 | > 100 | > 100 | > 100 | 1.29 | > 100 | > 100 | > 125 | > 100 | > 100 | -logMIC [20]: 1.29; EC50 [21]: > 100 µg/mL; -logMIC [22]: 1.29; CC50 at 96 h [23]: > 125 µg/mL; EC50 [24]: > 100 µg/mL; MCC [25]: > 100 µg/mL; MIC [26]: 25 µg/mL (≈ 103 µM) |
| O=C(N/N=C/c1ccccc1O)c1cccnc1 [N'-(2-HYDROXYBENZYLIDENE)NICOTINOHYDRAZIDE] | > 0.8 | 1.29 | > 0.8 | > 0.8 | 1.29 | > 0.8 | > 0.61 | > 4 | 0.42 (≈ 1.74 µM) | ≥ 4 | > 4 | 4 | > 0.8 | > 0.8 | 1.28 | > 0.8 | > 0.8 | > 0.61 | > 4 | > 2.2 | -logMIC [20]: 1.29; EC50 [21]: > 4 µg/mL; -logMIC [22]: 1.59; CC50 at 96 h [23]: 0.61 µg/mL (≈ 2.53 µM); EC50 [24]: > 0.8 µg/mL; MCC [25]: 4 µg/mL; MIC [26]: > 25 µg/mL |
| O=C(N/N=C/c1ccccc1)c1cccnc1 [NICOTINIC ACID BENZYLIDENE-HYDRAZIDE] | > 100 | 0.35 | > 100 | > 20 | 1.86 | > 100 | > 125 | > 100 | > 100 | > 100 | > 100 | > 100 | > 100 | > 20 | 1.25 | > 20 | > 100 | > 125 | > 100 | > 100 | -logMIC [20]: 1.26; EC50 [21]: > 100 µg/mL; -logMIC [22]: 0.95; CC50 at 96 h [23]: > 125 µg/mL; EC50 [24]: > 100 µg/mL; MCC [25]: 100 µg/mL; MIC [26]: > 25 µg/mL |
